Laboratory results as given in ChEMBL document CHEMBL5380842, “Discovery of a Potent and Selective CCR8 Small Molecular Antagonist IPG7236 for the Treatment of Cancer” (J Med Chem, 2023).

Tests used:
[1] = Stability in dog liver microsomes assessed as half life; assay type: ADME, Canis lupus familiaris, Microsome
[2] = target: T1, Cytochrome P450 3A4 (Homo sapiens, UniProt P08684); assay: Inhibition of CYP3A4-T (unknown origin); assay type: ADME
[3] = Tmax in Sprague-Dawley rat at 50 mg/kg, po; assay type: ADME, organism-based; conditions: in vivo
[4] = AUClast in Cynomolgous monkey at 50 mg/kg, po; assay type: ADME, organism-based, Macaca fascicularis; set-up: dose 50 mg/kg, route po; conditions: cynomolgus monkey, in vivo
[5] = AUClast in Cynomolgous monkey at 1 mg/kg, iv; assay type: ADME, organism-based, Macaca fascicularis; set-up: dose 1 mg/kg, route iv; conditions: cynomolgus monkey, in vivo
[6] = Unbound fraction in mouse plasma; assay type: ADME, cell-free
[7] = AUClast in Sprague-Dawley rat at 1 mg/kg, iv; assay type: ADME, organism-based; set-up: dose 1 mg/kg, route iv; conditions: in vivo
[8] = target: T1, Cytochrome P450 3A4; assay: Inhibition of CYP3A4-M (unknown origin); assay type: ADME
[9] = Clearance in Cynomolgous monkey at 1 mg/kg, iv; assay type: ADME, organism-based, Macaca fascicularis; conditions: cynomolgus monkey, in vivo
[10] = Oral bioavailability in ICR mouse at 50 mg/kg; assay type: ADME, organism-based; conditions: in vivo
[11] = Toxicity in humanized NCG mouse xenografted with human MDA-MB-231 cells administered intragastrically twice everyday; conditions: in vivo, po
[12] = AUClast in Beagle dog at 3 mg/kg, iv; assay type: ADME, organism-based, Canis lupus familiaris; set-up: dose 3 mg/kg, route iv; conditions: in vivo
[13] = AUClast in ICR mouse at 1 mg/kg, iv; assay type: ADME, organism-based; set-up: dose 1 mg/kg, route iv; conditions: in vivo
[14] = Volume of distribution at steady state in Sprague-Dawley rat at 1 mg/kg, iv; assay type: ADME, organism-based; conditions: in vivo, read-out: Vdss
[15] = test system: MDA-MB-231; assay: Antitumor activity against human MDA-MB-231 cells xenografted in humanized NCG mouse assessed as tumor growth inhibition at 10 mg/kg, IG bid measured after 22 days relative to control; assay type: functional; conditions: MDA-MB-231, po, 528 h, time 22 day, read-out: TGI
[16] = Oral bioavailability in Sprague-Dawley rat at 50 mg/kg; assay type: ADME, organism-based; conditions: in vivo
[17] = test system: MDA-MB-231; assay: Antitumor activity against human MDA-MB-231 cells xenografted in humanized NCG mouse assessed as tumor growth inhibition at 10 mg/kg, po bid relative to control; assay type: functional; conditions: read-out: TGI
[18] = test system: MDA-MB-231; assay: Antitumor activity against human MDA-MB-231 cells xenografted in humanized NCG mouse assessed as tumor growth inhibition at 50 mg/kg, IG bid measured after 22 days relative to control; assay type: functional; conditions: MDA-MB-231, po, 528 h, time 22 day, read-out: TGI
[19] = Tmax in Cynomolgous monkey at 50 mg/kg, po; assay type: ADME, organism-based, Macaca fascicularis; conditions: cynomolgus monkey, in vivo
[20] = AUClast in Sprague-Dawley rat at 50 mg/kg, po; assay type: ADME, organism-based; set-up: dose 50 mg/kg, route po; conditions: in vivo
[21] = target: T2, Cytochrome P450 1A2 (Homo sapiens, UniProt P05177); assay: Inhibition of CYP1A2 (unknown origin); assay type: ADME
T2 sequence (P05177 whole entry): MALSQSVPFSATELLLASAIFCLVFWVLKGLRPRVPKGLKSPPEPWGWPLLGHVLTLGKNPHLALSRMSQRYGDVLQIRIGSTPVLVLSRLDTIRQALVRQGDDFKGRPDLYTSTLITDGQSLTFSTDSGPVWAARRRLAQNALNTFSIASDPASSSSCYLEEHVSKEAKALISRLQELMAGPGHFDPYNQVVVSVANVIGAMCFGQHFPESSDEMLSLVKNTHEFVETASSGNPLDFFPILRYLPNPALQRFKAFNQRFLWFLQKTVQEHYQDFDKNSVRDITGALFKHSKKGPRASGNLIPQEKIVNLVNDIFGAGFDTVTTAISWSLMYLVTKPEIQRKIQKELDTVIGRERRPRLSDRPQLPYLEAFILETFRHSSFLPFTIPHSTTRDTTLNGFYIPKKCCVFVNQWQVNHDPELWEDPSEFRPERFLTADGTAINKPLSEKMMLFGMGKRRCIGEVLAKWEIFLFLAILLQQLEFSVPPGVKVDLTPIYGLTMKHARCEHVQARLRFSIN

[22] = Stability in human hepatocytes assessed as half life; assay type: ADME, cell-based, Hepatocyte
[23] = Cytotoxicity against human primary hepatocytes; assay type: toxicity, cell-based, Hepatocyte
[24] = Volume of distribution at steady state in ICR mouse at 1 mg/kg, iv; assay type: ADME, organism-based; conditions: in vivo, read-out: Vdss
[25] = Volume of distribution at steady state in Beagle dog at 3 mg/kg, iv; assay type: ADME, organism-based, Canis lupus familiaris; conditions: in vivo, read-out: Vdss
[26] = target: T3, Cytochrome P450 2C8 (Homo sapiens, UniProt P10632); assay: Inhibition of CYP2C8 (unknown origin); assay type: ADME
T3 sequence (P10632 whole entry): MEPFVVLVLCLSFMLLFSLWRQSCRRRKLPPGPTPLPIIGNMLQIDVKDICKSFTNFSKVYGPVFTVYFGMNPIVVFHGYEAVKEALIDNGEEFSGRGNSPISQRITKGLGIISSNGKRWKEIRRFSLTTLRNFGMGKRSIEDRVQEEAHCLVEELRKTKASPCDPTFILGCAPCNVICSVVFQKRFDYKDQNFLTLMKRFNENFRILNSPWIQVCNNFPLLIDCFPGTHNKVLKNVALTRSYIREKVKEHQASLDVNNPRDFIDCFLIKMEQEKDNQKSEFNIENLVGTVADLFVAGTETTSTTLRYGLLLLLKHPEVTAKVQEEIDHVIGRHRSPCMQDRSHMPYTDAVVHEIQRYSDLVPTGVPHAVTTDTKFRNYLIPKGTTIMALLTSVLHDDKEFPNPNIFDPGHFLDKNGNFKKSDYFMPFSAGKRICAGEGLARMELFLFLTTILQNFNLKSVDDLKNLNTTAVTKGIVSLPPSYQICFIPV

[27] = Volume of distribution at steady state in Cynomolgous monkey at 1 mg/kg, iv; assay type: ADME, organism-based, Macaca fascicularis; conditions: cynomolgus monkey, in vivo, read-out: Vdss
[28] = Stability in mouse hepatocytes assessed as half life; assay type: ADME, cell-based, Hepatocyte
[29] = test system: MDA-MB-231; assay: Antitumor activity against human MDA-MB-231 cells xenografted in humanized NCG mouse assessed as […] in tumor-infiltrating CD8+ T cells administered intragastrically twice everyday; assay type: functional, cell-based; conditions: dose 2-50 mg/kg, route ig
[30] = Apparent permeability of compound across basal to apical side in human Caco2 cells at 10 uM incubated for 120 mins by LC-MS/MS analysis; conditions: Caco-2
[31] = Tmax in Beagle dog at 10 mg/kg, po; assay type: ADME, organism-based, Canis lupus familiaris; conditions: in vivo
[32] = AUClast in ICR mouse at 50 mg/kg, po; assay type: ADME, organism-based; set-up: dose 50 mg/kg, route po; conditions: in vivo

T1 sequence (P08684 whole entry): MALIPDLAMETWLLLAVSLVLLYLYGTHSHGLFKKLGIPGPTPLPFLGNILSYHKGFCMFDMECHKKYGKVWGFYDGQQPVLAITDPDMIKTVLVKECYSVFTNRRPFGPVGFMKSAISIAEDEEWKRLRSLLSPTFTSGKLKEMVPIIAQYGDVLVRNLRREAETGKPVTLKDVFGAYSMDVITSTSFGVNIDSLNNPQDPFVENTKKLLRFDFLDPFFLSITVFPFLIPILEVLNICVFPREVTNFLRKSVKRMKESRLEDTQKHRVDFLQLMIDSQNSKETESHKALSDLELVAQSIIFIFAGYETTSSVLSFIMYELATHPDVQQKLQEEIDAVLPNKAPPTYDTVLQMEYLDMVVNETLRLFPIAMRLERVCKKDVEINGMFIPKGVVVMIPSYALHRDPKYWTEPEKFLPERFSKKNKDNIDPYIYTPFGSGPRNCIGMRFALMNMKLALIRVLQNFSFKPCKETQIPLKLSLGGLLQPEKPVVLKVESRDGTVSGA

half-life [1]: 2.63 h
IC50 [2]: > 10 µM
Tmax [3]: 3.3 h
AUC(0-t) [4]: 28900 ng·h/mL
AUC(0-t) [5]: 538 ng·h/mL
fraction unbound [6]: 0.449
AUC(0-t) [7]: 395 ng·h/mL
IC50 [8]: > 10 µM
clearance [9]: 31.1 mL/min/kg
bioavailability [10]: 65%
AUC(0-t) [12]: 3550 ng·h/mL
AUC(0-t) [13]: 666 ng·h/mL
Vd [14]: 4.4 L/kg
bioavailability [16]: 66%
Tmax [19]: 2.3 h
AUC(0-t) [20]: 13600 ng·h/mL
IC50 [21]: > 10 µM
half-life [22]: 8.7 h
Vd [24]: 2.2 L/kg
Vd [25]: 2.2 L/kg
IC50 [26]: > 10 µM
Vd [27]: 2.8 L/kg
half-life [28]: 43.5 h
Papp B→A at 2 h, 10 µM [30]: 17.2 ×10⁻⁶ cm/s
Tmax [31]: 0.5 h
AUC(0-t) [32]: 22100 ng·h/mL
SMILES: Cc1cc(S(=O)(=O)N[C@H](C)C2CCN(C)CC2)ccc1NC(=O)c1ccccc1C
MED [11]: 10 mg/kg
inhibition in vivo at 10 mg/kg [15]: 28.3%
inhibition in vivo at 10 mg/kg [17]: 47.2%
inhibition in vivo at 50 mg/kg [18]: 55.6%
IC50 [23]: > 150 µM
Activity [29]: Dose-Dependent Effect
